Patent US20140057887A1, “NOVEL PLATINUM-CARBENE COMPLEXES AND USE THEREOF AS MEDICAMENTS” (priority 2010, published 2014)
Entries after “also recorded” stand apart in the source; their conditions may differ. Where two headings read alike, the source gives them in different places.

Columns and labels:
[1] = system: MCF7; assay: Cytotoxicity in vitro, IC50 on MCF7; type: cell-based; details: breast carcinoma
Procedure: (§1) (5% CO2). […] All the treatments are carried out in triplicate.
(§2) The cytotoxicity of a compound against a cancer cell line is evaluated.

[2] = system: HCT116; assay: Cytotoxicity in vitro, IC50 on HCT116; type: cell-based, human
Procedure: as §1, §2

[3] = system: PC3; assay: Cytotoxicity in vitro, IC50 on PC3; type: cell-based
Procedure: as §1
(§3) PC3: prostatic adenocarcinoma
as §2

[4] = system: SK-OV3; assay: Cytotoxicity in vitro, IC50 on SK-OV3; type: cell-based; details: ovarian adenocarcinoma
Procedure: as §1
(§4) SK-OV-3 and OVCAR8: ovarian adenocarcinomas
as §2

[5] = system: OVCAR8; assay: Cytotoxicity in vitro, IC50 on OVCAR8; type: cell-based; details: ovarian adenocarcinoma
Procedure: as §1, §4, §2

[6] = system: EPC; assay: Cytotoxicity in vitro, IC50 on EPC (endothelial progenitor cells); type: cell-based
Procedure: as §1
(§5) EPC: endothelial progenitor cells
(§6) The endothelial progenitor cells (EPC) play an important role in angiogenesis and vasculogenesis; these last-mentioned contribute to tumour growth, are mobilized by cytokines secreted at cancer sites and contribute to postnatal vasculogenesis and to pathological neovascularization.
as §2

[7] = system: KB; assay: Percentage of cellular inhibition at 10 μM, KB; type: cell-based; details: final concentration 10 μM; buccal carcinoma
Procedure: as §1

[8] = system: SK-OV3; assay: Percentage of cellular inhibition at 10 μM, SK-OV3; type: cell-based; details: for Inhibition (in %) {SK-OV3}: final concentration 10 μM, ovarian adenocarcinoma
Procedure: as §1, §4

[9] = system: OVCAR8; assay: Percentage of cellular inhibition at 10 μM, OVCAR8; type: cell-based; details: for Inhibition (in %) {OVCAR8}: final concentration 10 μM, ovarian adenocarcinoma
Procedure: as §1, §4

[10] = system: HL60; assay: Percentage of cellular inhibition at 10 μM, HL60; type: cell-based; details: final concentration 10 μM; leukaemia
Procedure: as §1

[11] = system: MCF7; assay: Percentage of cellular inhibition at 10 μM, MCF7; type: cell-based; details: final concentration 10 μM; breast carcinoma
Procedure: as §1

[12] = system: HCT116; assay: Percentage of cellular inhibition at 10 μM, HCT116; type: cell-based, human; details: final concentration 10 μM; colon carcinoma
Procedure: as §1

[13] = system: PC3; assay: Percentage of cellular inhibition at 10 μM, PC3; type: cell-based; details: final concentration 10 μM; prostatic adenocarcinoma
Procedure: as §1, §3

[14] = system: MRC5; assay: Percentage of cellular inhibition at 10 μM, MRC5; type: cell-based, human; details: for Inhibition (in %) {MRC5}: final concentration 10 μM, human fetal lung cells (non-cancerous)
Procedure: as §1
MRCS: human fetal lung cells

[15] = system: Vero; assay: Percentage of cellular inhibition at 10 μM, Vero; type: cell-based, monkey; details: for Inhibition (in %) {Vero}: final concentration 10 μM, monkey kidney epithelial cells (non-cancerous); for cytotoxicity on non-cancerous cells Vero (in words): 10 μM
Procedure: as §1
Vero: monkey kidney epithelial cells

[16] = system: EPC; assay: Percentage of cellular inhibition at 10 μM, EPC; details: for Inhibition (in %) {EPC}: final concentration 10 μM, endothelial progenitor cells
Procedure: as §1, §6, §5

[17] = system: U87; assay: MTS cytotoxicity assay, IC50 on U87 cell line; details: for IC50: read-out: IC50 {U87} (in μM), MTS assay, 48 h incubation
Procedure: (§7) MTS [3-(4,5-dimethylthiazol-2-yl)-5-(3-carboxymethoxyphenyl)-2-(4-sulphophenyl)-2H-tetrazolium] is reduced to formazan (coloured compound, the optical density of which is measured at 492 nm) by the mitochondrial dehydrogenases. Only the live cells will reduce MTS to formazan, which will be released in the medium. The optical density measured at 492 nm is directly proportional to the number of live cells.
(§8) MTS [3-(4,5-dimethylthiazol-2-yl)-5-(3-carboxymethoxyphenyl)-2-(4-sulphophenyl)-2H-tetrazolium], soluble in the culture medium, can be reduced to formazan (coloured product) by the mitochondrial dehydrogenases of the live cells. The measured optical density (492 nm) is therefore directly proportional to the quantity of live cells. The cells are deposited in a 96-well plate at 1.10^4 cells per well in 100 μL of RPMI 5% FCS. The cells are then treated with the various molecules at the desired concentrations and then incubated for 48 h at 37° C. (5% CO2). After treatment, 20 μL of MTS is added to each well. After incubation for two hours at 37° C. the optical density is measured at an absorbance of 492 nm using the plate reader Wallac Victor 2 Multi-label Counter (Technical University of Denmark, Kongens Lyngby, Denmark). All the treatments are carried out in triplicate. The blank, determined by incubating RPMI with MTS, is deducted from the values of the wells containing cells. The percentage of live cells is calculated from the following formula: (OD experiment*100)/OD control.
(§9) The cytotoxicity of the compounds according to the invention is measured in vitro on the Hela and U87 cell lines.
U87: stage IV glioblastoma, expresses αVβ5 and can be used as a xenograft
(§10) The cytotoxicity of a compound with respect to a cancer cell line is evaluated from the value of the inhibitory concentration IC50 of said compound with respect to said cell line.
(§11) The MTS assay gives an optical density signal that is proportional to the quantity of live cells (in a linear range). These values, as well as the untreated controls, are used for calculating the percentage of live cells at each concentration. […] The IC50 values are calculated on the basis of 4-parameter fitting using the Sigma Plot software.

[18] = system: Hela; assay: MTS cytotoxicity assay, IC50 on Hela cell line; details: for IC50: read-out: IC50 {Hela} (in μM), MTS assay, 48 h incubation
Procedure: as §7, §8, §9, §10, §11

[19] = system: cell lines KB, SK-OV3, OVCAR-8, HL60, MCF7, HCT116, PC3, MRCS, Vero and EPC; assay: Cellular inhibition, overall statements on the panel of cell lines; type: cell-based; details: 10 μM, panel of cancer and non-cancerous cell lines
Description: The results obtained are presented below.

[20] = Measurement of water-solubility; type: physicochemical
[21] = molecular target: integrin αvβ3 (Homo sapiens, UniProt P05106+P06756); details: background statement; cited from earlier work
[22] = measured by first dissolving cisplatin in water

Sequence of integrin αvβ3 (P06756 31-889 limits assumed): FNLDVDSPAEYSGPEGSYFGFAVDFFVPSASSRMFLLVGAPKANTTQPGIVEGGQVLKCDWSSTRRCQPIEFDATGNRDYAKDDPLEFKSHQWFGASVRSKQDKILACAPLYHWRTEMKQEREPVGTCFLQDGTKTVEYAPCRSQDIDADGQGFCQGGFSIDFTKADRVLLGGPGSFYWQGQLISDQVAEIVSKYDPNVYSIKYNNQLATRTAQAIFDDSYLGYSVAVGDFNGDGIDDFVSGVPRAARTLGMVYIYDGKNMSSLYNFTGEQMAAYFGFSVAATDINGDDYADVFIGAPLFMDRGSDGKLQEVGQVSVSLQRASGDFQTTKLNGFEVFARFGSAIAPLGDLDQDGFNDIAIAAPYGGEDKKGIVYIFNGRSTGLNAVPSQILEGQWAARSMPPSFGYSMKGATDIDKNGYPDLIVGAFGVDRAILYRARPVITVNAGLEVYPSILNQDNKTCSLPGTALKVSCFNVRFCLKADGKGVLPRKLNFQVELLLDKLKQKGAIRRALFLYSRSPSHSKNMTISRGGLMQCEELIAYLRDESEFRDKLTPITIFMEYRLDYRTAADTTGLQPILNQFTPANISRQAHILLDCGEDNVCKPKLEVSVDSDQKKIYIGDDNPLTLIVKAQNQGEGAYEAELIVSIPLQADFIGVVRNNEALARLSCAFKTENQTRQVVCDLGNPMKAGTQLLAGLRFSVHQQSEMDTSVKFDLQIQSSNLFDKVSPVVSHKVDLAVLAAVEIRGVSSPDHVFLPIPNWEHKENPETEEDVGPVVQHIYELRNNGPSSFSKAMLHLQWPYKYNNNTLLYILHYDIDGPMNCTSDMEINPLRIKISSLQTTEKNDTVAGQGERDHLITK
Sequence of integrin αvβ3 (P06756 891-1048 partner limits assumed): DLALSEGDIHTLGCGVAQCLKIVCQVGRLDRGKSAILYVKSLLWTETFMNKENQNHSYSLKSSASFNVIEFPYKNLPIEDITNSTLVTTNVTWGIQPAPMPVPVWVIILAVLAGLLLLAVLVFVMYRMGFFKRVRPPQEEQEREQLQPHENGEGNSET
Sequence of integrin αvβ3 (P05106 27-788): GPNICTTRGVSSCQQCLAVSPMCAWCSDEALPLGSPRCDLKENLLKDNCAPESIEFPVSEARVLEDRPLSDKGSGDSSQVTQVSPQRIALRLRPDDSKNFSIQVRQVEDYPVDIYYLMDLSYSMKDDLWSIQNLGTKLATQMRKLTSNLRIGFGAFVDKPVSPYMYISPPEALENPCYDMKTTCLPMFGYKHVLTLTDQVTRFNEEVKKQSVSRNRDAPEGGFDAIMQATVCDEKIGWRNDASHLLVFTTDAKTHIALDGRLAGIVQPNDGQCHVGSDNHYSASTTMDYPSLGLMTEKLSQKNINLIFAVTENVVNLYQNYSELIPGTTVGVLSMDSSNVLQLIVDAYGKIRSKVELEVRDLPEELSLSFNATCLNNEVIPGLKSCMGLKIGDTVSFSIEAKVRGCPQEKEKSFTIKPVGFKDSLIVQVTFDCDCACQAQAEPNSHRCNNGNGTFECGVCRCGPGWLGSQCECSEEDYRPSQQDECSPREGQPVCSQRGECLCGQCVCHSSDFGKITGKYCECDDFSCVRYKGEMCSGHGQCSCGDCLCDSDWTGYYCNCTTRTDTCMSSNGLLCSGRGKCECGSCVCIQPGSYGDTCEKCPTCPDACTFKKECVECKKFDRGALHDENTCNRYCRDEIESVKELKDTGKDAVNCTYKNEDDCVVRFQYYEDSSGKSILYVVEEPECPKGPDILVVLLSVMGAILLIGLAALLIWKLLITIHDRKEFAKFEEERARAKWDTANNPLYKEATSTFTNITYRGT

| Compound | IC50 [1] [µM] | IC50 [4] [µM] | IC50 [6] [µM] | Inhibition (in %) {KB} [7] [%] | Inhibition (in %) {SK-OV3} [8] [%] | Inhibition (in %) {OVCAR8} [9] [%] | Inhibition (in %) {HL60} [10] [%] | Inhibition (in %) {MCF7} [11] [%] | Inhibition (in %) {HCT116} [12] [%] | Inhibition (in %) {PC3} [13] [%] | Inhibition (in %) {MRC5} [14] [%] | Inhibition (in %) {Vero} [15] [%] | Inhibition (in %) {EPC} [16] [%] | anti-angiogenic activity by inhibition of growth of EPC cells (in words) ([16]; 10 μM) | inhibition of cell growth, overall statement on the cell panel (in words) [19] | IC50 ([3]; prostatic adenocarcinoma) [µM] | also measured |
| --- | --- | --- | --- | --- | --- | --- | --- | --- | --- | --- | --- | --- | --- | --- | --- | --- | --- |
| N.N.[Cl][Pt][Cl] [Cisplatin, cisplatin, reference compound] | > 10 | > 10 | > 10 | 3.6 | 4.4 | −1.8 | −10.6 | −4.1 | 2.7 | −6.2 | −20.4 | −4.0 | −1.2 | – | – | – | IC50 [2, 22]: 5.5 µM; IC50 [3, 22]: 5.1 µM; IC50 [5]: > 10 µM; IC50 [17]: 8 µM; IC50 [18]: 26.2 µM |
| COCCOCCOCCOCCn1ccn(C)[c]1=[Pt]([I])[I].NC1CCCCC1 [Example 13, trans-diiodo(N-cyclohexylamine)[1-methyl-3-(2,5,8,11-tetraoxatridecan-13-yl)-imidazol-2-ylidene]platinum(II)] | – | – | – | 100.4 | 90.9 | 92.4 | 87.3 | 94.2 | 94.0 | 83.8 | – | – | 96.1 | anti-angiogenic activity | improves the activity of inhibition of cell growth | – | – |
| COCCOCCOCCOCCn1ccn(CCOCCOCCOCCOC)[c]1=[Pt]([I])[I].NC1CCCCC1 [Example 14, trans-diiodo(N-cyclohexylamine)[1,3-di(2,5,8,11-tetraoxatridecan-13-yl)-imidazol-2-ylidene]platinum(II)] | – | 6.2 | – | 26.6 | 62.8 | 78.4 | 31.2 | 18.6 | 31.9 | 5.7 | 24.5 | 17.0 | 27.2 | – | selective inhibitor of the growth of cancer cells | – | IC50 [5]: 3.9 µM; selectivity of inhibition of cell growth, SKOV-3 (in words) ([8]; 10 μM): selective with respect to the ovarian cancer cells SKOV-3 and OVCAR8; selectivity of inhibition of cell growth, OVCAR8 (in words) ([9]; 10 μM): selective with respect to the ovarian cancer cells SKOV-3 and OVCAR8; cytotoxicity on non-cancerous cells MRCS (in words) ([14]; 10 μM): low cytotoxicity; cytotoxicity on non-cancerous cells Vero (in words) [15]: low cytotoxicity; cytotoxicity on non-cancerous cells EPC (in words) ([16]; 10 μM): low cytotoxicity |
| Cn1ccn(CCC[Si](C)(C)C)[c]1=[Pt]([I])[I].c1ccncc1 [Example 28, trans-diiodo(N-pyridine)[1-methyl-3-(3-(trimethylsilyl)propyl)-imidazol-2-ylidene]platinum(II)] | 0.2 | 0.2 | 0.6 | 99.8 | 100.4 | 98.0 | 99.6 | 99.2 | 99.4 | 91.5 | – | – | 100.3 | anti-angiogenic activity | – | 0.5 | – |
| CN1C=CN(Cc2ccccc2)[CH]1[Pt]([I])([I])[NH]CCN (stereo not drawn) [Example 33, trans-diiodo(N-ethylenediamine)[1-methyl-3-benzyl-imidazol-2-ylidene]platinum(II)] | – | – | – | – | – | – | – | – | – | – | – | – | – | – | – | – | solubility ([20]; water, thermodynamic from solid, ambient temperature and pressure): 3300 µg/mL |
| CNC(=O)NCC(Cc1ccccc1)NC(=O)NCC(Cc1ccccc1)NC(=O)NCC(Cc1ccccc1)NC(=O)NCC(N)Cc1ccccc1.Cn1ccn(Cc2ccccc2)[c]1=[Pt]([I])[I] [Example 39, trans-diiodo(N-[1-((2R,7R,12R,17R)-17-amino-2,7,12-tribenzyl-4,9,14-trioxo-18-phenyl-3,5,8,10,13,15-hexaazaoctadecyl)-3-methylurea])[1-methyl-3-benzyl-imidazol-2-ylidene]platinum(II)] | 0.6 | 0.6 | 1.9 | 101.2 | 95.2 | 92.1 | 91.0 | 95.9 | 96.1 | 90.9 | – | – | 99.3 | anti-angiogenic activity | – | 1.4 | IC50 ([2]; colon carcinoma): 0.4 µM |
| cyclo(RGDfK) [cyclo(RGDfK) peptide] | – | – | – | – | – | – | – | – | – | – | – | – | – | – | – | – | affinity for integrin αvβ3 (in words) [21]: high affinity |
| trans-diiodo(N-[(methoxy)polyethylene glycol amine])[1-methyl-3-benzyl-imidazol-2-ylidene]platinum(II) [Example 22] | – | – | – | 77.8 | 90.3 | 90.0 | 87.4 | 91.7 | 94.3 | 78.5 | – | – | 93.7 | anti-angiogenic activity | – | – | Water-solubility ([20]; ambient temperature and pressure): 11100 µg/mL |
| trans-diiodo(N-poly(ethylenamine))[1-methyl-3-benzyl-imidazol-2-ylidene]platinum(II) [Example 34] | 1.7 | 1.2 | – | 64.0 | 99.1 | 79.1 | 97.0 | 98.2 | 90.1 | 64.2 | 26.4 | 19.5 | 95.8 | anti-angiogenic activity | inhibitor of the growth of cancer cells and an anti-angiogenic agent; also recorded: cytotoxic activity on all of the cancer cells tested | 2.8 | IC50 ([2]; colon carcinoma): 1 µM; cytotoxicity on non-cancerous cells Vero (in words) [15]: low cytotoxicity; Water-solubility [20]: 6700 µg/mL; cytotoxic activity compared with cisplatin, U87 cell line (in words) ([17]; comparison with cisplatin): almost identical to that of cisplatin; IC50 [17]: 8.3 µM; cytotoxic activity compared with cisplatin, HeLa cell line (in words) ([18]; comparison with cisplatin): almost identical to that of cisplatin; IC50 [18]: 28.4 µM |
